Results reported in PMC7350407, “Kinetic Modifications of C4 PEPC Are Qualitatively Convergent, but Larger in Panicum Than in Flaveria” (Frontiers in Plant Science, 2020).
Where two headings read alike, the source gives them in different places.

Tests used:
[1] = target: T1, Flaveria pringlei (C3) PEPC (Flaveria pringlei, UniProt Q01647); experiment: malate dehydrogenase-coupled NADH assay, secondary plot of kcat/Km(HCO3-) against PEP; assay type: biochemical; details: substrate constant at limiting bicarbonate, not inhibition; pH 8.0, 25 °C, 10 mM MgCl2
T1 construct: gene PPCA1; full-length, 967 codons, N-terminal His6 tag kept (pET-1B His6 TEV LIC), E. coli BL21(DE3)
Description: malate dehydrogenase-coupled NADH assay, secondary plot of kcat/Km(HCO3-) against PEP on Flaveria pringlei (C3) PEPC

[2] = system: T2, Panicum pygmaeum (C3) PEPC; experiment: malate dehydrogenase-coupled NADH assay, […] nm, secondary plot; assay type: biochemical; details: co-substrate bicarbonate; pH 8.0, 25 °C, 10 mM MgCl2; read-out: KmPEP
T2 construct: gene ppc-1P3; full-length, 969 codons, codon-optimised synthetic gene, N-terminal His6 tag kept, E. coli BL21(DE3)

[3] = target: T3, Panicum queenslandicum (C4) PEPC; experiment: malate dehydrogenase-coupled NADH assay, secondary plot of kcat/Km(HCO3-) against PEP; assay type: biochemical; details: substrate constant at limiting bicarbonate, not inhibition; pH 8.0, 25 °C, 10 mM MgCl2
T3 construct: gene ppc-1P3; full-length, 962 codons, N-terminal His6 tag kept, E. coli BL21(DE3), cloned from leaf cDNA
Description: malate dehydrogenase-coupled NADH assay, secondary plot of kcat/Km(HCO3-) against PEP on Panicum queenslandicum (C4) PEPC

[4] = system: T3, Panicum queenslandicum (C4) PEPC; experiment: malate dehydrogenase-coupled NADH assay, […] nm, secondary plot; assay type: biochemical; details: co-substrate bicarbonate; pH 8.0, 25 °C, 10 mM MgCl2; read-out: KmPEP
[5] = target: T4, Flaveria trinervia (C4) PEPC (Flaveria trinervia, UniProt P30694); experiment: malate dehydrogenase-coupled NADH assay, secondary plot of kcat/Km(HCO3-) against PEP; assay type: biochemical; details: substrate constant at limiting bicarbonate, not inhibition; pH 8.0, 25 °C, 10 mM MgCl2
T4 construct: gene PPCA; full-length, 967 codons, N-terminal His6 tag kept (pET-1B His6 TEV LIC), E. coli BL21(DE3)
Description: malate dehydrogenase-coupled NADH assay, secondary plot of kcat/Km(HCO3-) against PEP on Flaveria trinervia (C4) PEPC

[6] = target: T2, Panicum pygmaeum (C3) PEPC; experiment: as above; assay type: biochemical; details: substrate constant at limiting bicarbonate, not inhibition; pH 8.0, 25 °C, 10 mM MgCl2
Description: malate dehydrogenase-coupled NADH assay, secondary plot of kcat/Km(HCO3-) against PEP on Panicum pygmaeum (C3) PEPC

[7] = target: T1, Flaveria pringlei (C3) PEPC; experiment: malate dehydrogenase-coupled NADH assay, […] nm; assay type: biochemical
[8] = target: T2, Panicum pygmaeum (C3) PEPC; experiment: malate dehydrogenase-coupled NADH assay, […] nm; assay type: biochemical; details: pH 8.0, 25 °C, 10 mM MgCl2, 5 mM KHCO3, PEP varied
[9] = target: T4, Flaveria trinervia (C4) PEPC; experiment: malate dehydrogenase-coupled NADH assay, […] nm; assay type: biochemical
[10] = target: T3, Panicum queenslandicum (C4) PEPC; experiment: malate dehydrogenase-coupled NADH assay, […] nm; assay type: biochemical; details: pH 8.0, 25 °C, 10 mM MgCl2, 5 mM KHCO3, PEP varied
[11] = system: T5, Panicum queenslandicum (C4) PEPC; details: read-out: KmHCO3-; co-substrate PEP; pH 8.0, 25 °C, 10 mM MgCl2
T5 construct: gene ppc-1P3

[12] = system: T6, Panicum pygmaeum (C3) PEPC; details: read-out: KmHCO3-; co-substrate PEP; pH 8.0, 25 °C, 10 mM MgCl2
T6 construct: gene ppc-1P3

purified protein [13] = substrate: O=C(O)O; experiment: purified protein; details: co-substrate PEP, pH 8.0, 25 °C, 10 mM MgCl2
purified protein [14] = substrate: C=C(OP(=O)(O)O)C(=O)O; experiment: purified protein; assay type: biochemical, Flaveria trinervia; details: co-substrate bicarbonate, pH 8.0, 25 °C, 10 mM MgCl2
purified protein [15] = substrate: C=C(OP(=O)(O)O)C(=O)O; experiment: purified protein; assay type: biochemical, Flaveria pringlei; details: co-substrate bicarbonate, pH 8.0, 25 °C, 10 mM MgCl2
[16] = mixed inhibitor, competitive constant (limiting PEP), read-out: KicMalate
[17] = competitive, read-out: KicAspartate

In the case of `C=C(OP(=O)(O)O)C(=O)O` [PEP], the “KiPEP” value [1] is reported as 0.02 ± 0.01 mM, the Km [2] is reported as 170 ± 50 µM and the “KiPEP” value [3] is reported as 4.39 ± 1.10 mM. The Km [4] was 4.17 ± 0.3 mM, the “KiPEP” value [5] was 0.40 ± 0.13 mM and the “KiPEP” value [6] was 0.05 ± 0.01 mM.

`O=C(O)C[C@H](O)C(=O)O` [malate] was tested, and the Ki ([7]; read-out: KicMalate) was 2.14 ± 0.62 mM, the Ki [8, 16] was 0.52 ± 0.22 mM and the Ki ([9]; read-out: KicMalate) was 11 ± 1.55 mM. For the same molecule, the Ki [10, 16] was 7.51 ± 1.17 mM.

For `O=C(O)O` [bicarbonate], the Km [11] was 40 ± 20 µM and the Km [12] was 120 ± 20 µM.

`N[C@@H](CC(=O)O)C(=O)O` [aspartate] showed a Ki ([7]; read-out: KicAspartate) of 4.13 ± 0.6 mM, a Ki [8, 17] of 2.27 ± 0.02 mM and a Ki ([9]; read-out: KicAspartate) of 40 ± 6.49 mM. It also gave a Ki [10, 17] of 49.4 ± 7.86 mM.

B1: Flaveria trinervia (C4) PEPC (Flaveria trinervia) (protein)
chain: MANRNVEKLASIDAQLRLLVPGKVSEDDKLVEYDALLLDKFLDILQDLHGEDLKEAVQQCYELSAEYEGKHDPKKLEELGSLLTSLDTGDSIVIAKAFSHMLNLANLAEELQIAYRRRIKLKSGDFADEANATTESDIEETFKRLVHKLNKSPEEVFDALKNQTVELVLTAHPTQSVRRSLLQKHGRIRNCLAQLYAKDITPDDKQELDEALHREIQAAFRTDEIRRTPPTPQDEMRAGMSYFHETIWKGVPKFLRRVDTALKNIGINERFPYNAPLIQFSSWMGGDRDGNPRVTPEVTRDVCLLARMMTSNMYFSQIEDLMIEMSMWRCNSELRVRAEELYRTARKDVKHYIEFWKRIPPNQPYRVILGDVRDKLYNTRERSRHLLVDGKSDIPDEAVYTNVEQLLEPLELCYRSLCDCGDHVIADGSLLDFLRQVSTFGLSLVKLDIRQESDRHTEVLDAITQHLGIGSYREWSEEKRQEWLLAELSGKRPLIGPDLPKTEEVKDCLDTFKVLAELPSDCFGAYIISMATSTSDVLAVELLQREYHIKHPLRVVPLFEKLADLEAAPAAMTRLFSMDWYRNRIDGKQEVMIGYSDSGKDAGRFSAAWQLYKTQEQIVKIAKEFGVKLVIFHGRGGTVGRGGGPTHLALLSQPPDTINGSLRVTVQGEVIEQSFGEEHLCFRTLQRFCAATLEHGMNPPISPRPEWRELMDQMAVVATEEYRSVVFKEPRFVEYFRLATPELEFGRMNIGSRPSKRKPSGGIESLRAIPWIFSWTQTRFHLPVWLGFGAAFKHAIQKDSKNLQMLQEMYKTWPFFRVTIDLVEMVFAKGNPGIAALNDKLLVSEDLRPFGESLRANYEETKNYLLKIAGHKDLLEGDPYLKQGIRLRDPYITTLNVCQAYTLKRIRDPNYHVTLRPHISKEYAAEPSKPADELIHLNPTSEYAPGLEDTLILTMKGIAAGMQNTG
notes: full-length, 967 codons, N-terminal His6 tag kept (pET-1B His6 TEV LIC), E. coli BL21(DE3)
Molecule B1 has a Km (purified protein [13]) of 0.07 ± 0.01 mM, a kcat (purified protein [13]) of 47.99 ± 1.21 s⁻¹ and a kcat/Km (purified protein [13]) of 690000 M⁻¹ s⁻¹. For the same molecule, the Km (purified protein [14]) was 0.60 ± 0.05 mM, the kcat (purified protein [14]) was 47.99 ± 1.21 s⁻¹ and the kcat/Km (purified protein [14]) was 80000 ± 5400 M⁻¹ s⁻¹.

B2: Flaveria pringlei (C3) PEPC (Flaveria pringlei) (protein)
chain: MANRNLEKLASIDAQLRLLVPGKVSEDDKLIEYDALLLDKFLDILQDLHGEDLKEAVQECYELSAEYEGKHDPKKLEELGSVLTSLDPGDSIVIAKAFSHMLNLANLAEEVQIAYRRRIKLKRGDFADEANATTESDIEETFKKLVLKLNKSPEEVFDALKNQTVDLVLTAHPTQSVRRSLLQKHGRIRNCLAQLYAKDITPDDKQELDEALHREIQAAFRTDEIRRTPPTPQDEMRAGMSYFHETIWKGVPKFLRRVDTALKNIGINERVPYNAPLIQFSSWMGGDRDGKHPRVTPEVTRDVCLLARMMASNMYFSQIEDLMFEMSMWRCNSELRVRAEELYRTARRDVKHYIEFWKQVPPTEPYRVILGDVRDKLYNTRERSRHLLAHGISDIPEEAVYTNVEQFLEPLELCYRSLCDCGDRVIADGSLLDFLRQVSTFGLSLVKLDIRQESDRHTDVLDAITQHLEIGSYREWSEEKRQEWLLAELSGKRPLFGSDLPKTEEVKDVLDTFNVLAELPSDCFGAYIISMATSPSDVLAVELLQRECHVKHPLRVVPLFEKLADLEAAPAAMARLFSIDWYRNRIDGKQEVMIGYSDSGKDAGRFSAAWQLYKAQEEIIKVAKEFGVKLVIFHGRGGTVGRGGGPTHLAILSQPPDTIHGSLRVTVQGEVIEQSFGEEHLCFRTLQRFCAATLEHGMNPPISPRPEWRELMDQMAVVATEEYRSIVFKEPRFVEYFRLATPELEYGRMNIGSRPSKRKPSGGIESLRAIPWIFAWTQTRFHLPVWLGFGAAFKHAIKKDSKNLQMLQEMYKTWPFFRVTIDLVEMVFAKGDPGIAALNDKLLVSEDLWPFGESLRANYEETKDYLLKIAGHRDLLEGDPYLKQRIRLRDSYITTLNVCQAYTLKRIRDPNYHVTLRPHISKEYAAEPSKPADELIHLNPTSEYAPGLEDTLILTMKGIAAGMQNTG
notes: as for B1
B2 gave a Km (purified protein [15]) of 0.06 ± 0.01 mM, a kcat (purified protein [15]) of 52.65 ± 1.37 s⁻¹ and a kcat/Km (purified protein [15]) of 940000 ± 84900 M⁻¹ s⁻¹. It also gave a Km (purified protein [13]) of 0.10 ± 0.01 mM, a kcat (purified protein [13]) of 52.65 ± 1.37 s⁻¹ and a kcat/Km (purified protein [13]) of 440000 M⁻¹ s⁻¹.
